Test results: US20210147343A1 (priority 2018, published 2021)
Structures can show the parent of a compound that is named as a salt.

Tests used:
mu opioid receptor (MOR) [1] = target: T1, mu opioid receptor (MOR) (Homo sapiens, UniProt P35372); assay: MOR GTPγS agonist assay; format: biochemical; design: host or cells: CHO-K1; details: membranes of CHO cells over-expressing MOR; SPA beads; read-out: MOR GTPγS EC50
Description: Membranes obtained from the stable cell lines over-expressing MOR were subjected to GTPγS assay using SPA beads (Perkin Elmer, Cat #RPNQ0001).

mu opioid receptor (MOR) [2] = target: T1, mu opioid receptor (MOR); assay: MOR cAMP agonist assay

T1 sequence (P35372 whole entry): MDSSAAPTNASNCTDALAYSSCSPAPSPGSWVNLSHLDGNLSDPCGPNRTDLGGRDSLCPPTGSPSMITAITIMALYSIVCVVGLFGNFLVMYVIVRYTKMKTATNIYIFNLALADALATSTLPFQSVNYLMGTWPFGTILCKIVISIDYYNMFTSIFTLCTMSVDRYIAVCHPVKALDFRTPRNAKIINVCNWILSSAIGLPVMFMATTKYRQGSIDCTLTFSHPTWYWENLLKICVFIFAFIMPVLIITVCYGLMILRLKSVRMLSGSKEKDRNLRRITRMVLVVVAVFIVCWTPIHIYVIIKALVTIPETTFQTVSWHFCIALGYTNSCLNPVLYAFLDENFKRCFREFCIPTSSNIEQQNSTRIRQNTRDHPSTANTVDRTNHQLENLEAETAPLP

## CNC(=O)c1cc(C)c(C[C@@H](CNC(=O)c2ccc(C)cc2C)N(C)C)c(C)c1 [Compound C-18]
Mu opioid receptor (MOR) [1]
  EC50: < 100 nM

## CNC(=O)c1cc(C)c(C[C@@H](CNC(=O)c2ccc(Cl)c(Cl)c2)N(C)C)c(C)c1 [Compound C-42, (S)-4-(3-(3,4-Dichlorobenzamido)-2-(dimethylamino)propyl)-N,3,5-trimethylbenzamide Hydrochloride]
Mu opioid receptor (MOR) [1]
  EC50: < 100 nM

## Cc1cc(O)cc(C)c1C[C@@H](CNC(=O)c1cccc(Cl)c1)N(C)C [Compound C-25]
Mu opioid receptor (MOR) [1]
  EC50: < 100 nM

## CN(CC(F)(F)F)[C@H](CNC(=O)[C@@H]1C[C@]1(C)c1ccccc1)Cc1ccc(C(=O)NC2CC2)c(F)c1 [Compound B-29, N-cyclopropyl-2-fluoro-4-((S)-2-(methyl(2,2,2-trifluoroethyl)amino)-3-((1R,2S)-2-methyl-2-phenylcyclopropane-1-carboxamido)propyl)benzamide]
Mu opioid receptor (MOR) [2]
  EC50: < 100 nM

## CN(C)[C@H](CNC(=O)c1ccc(Cl)c(Cl)c1)Cc1ccc2n[nH]cc2c1 [Compound C-4, (S)-3,4-dichloro-N-(2-(dimethylamino)-3-(1H-indazol-5-yl)propyl)benzamide]
Mu opioid receptor (MOR) [1]
  EC50: < 100 nM

## CNC(=O)c1cc(C)c(C[C@@H](CNC(=O)c2ccc(Cl)cc2)N(C)C)c(C)c1 [Compound C-11]
Mu opioid receptor (MOR) [1]
  EC50: < 100 nM

## CN(C)[C@H](CNC(=O)[C@@H]1C[C@@]1(C)c1ccccc1)Cc1ccc2[nH]c(=O)oc2c1 [Compound B-53, (1R,2R)—N—((S)-2-(dimethylamino)-3-(2-oxo-2,3-dihydrobenzo[d]oxazol-6-yl)propyl)-2-methyl-2-phenylcyclopropane-1-carboxamide]
Mu opioid receptor (MOR) [2]
  EC50: < 100 nM

## Cc1ccc(C(=O)NC[C@H](Cc2ccc3n[nH]cc3c2)N(C)C)c(C)c1 [Compound C-51]
Mu opioid receptor (MOR) [1]
  EC50: 100 to 1000 nM

## CNC(=O)c1cc(C)c(C[C@@H](CNC(=O)c2cnccn2)N(C)C)c(C)c1 [Compound C-47, (S)—N-(3-(2,6-dimethyl-4-(methylcarbamoyl)phenyl)-2-(dimethylamino)propyl)pyrazine-2-carboxamide]
Mu opioid receptor (MOR) [1]
  EC50: > 1000 nM

## CNC(=O)c1cc(C)c(C[C@@H](CNC(=O)c2ccc(OC)cc2)N(C)C)c(C)c1 [Compound C-17]
Mu opioid receptor (MOR) [1]
  EC50: < 100 nM

## Cc1cc(O)cc(C)c1C[C@@H](CNC(=O)c1ccc(Cl)c(F)c1)N(C)C [Compound C-6, (S)-4-chloro-N-(2-(dimethylamino)-3-(4-hydroxy-2,6-dimethylphenyl)propyl)-3-fluorobenzamide]
Mu opioid receptor (MOR) [1]
  EC50: < 100 nM

## CN(C)[C@H](CNC(=O)c1ccc(Cl)c(F)c1)Cc1ccc2n[nH]cc2c1 [Compound C-65, (S)-4-chloro-N-(2-(dimethylamino)-3-(2H-indazol-5-yl)propyl)-3-fluorobenzamide]
Mu opioid receptor (MOR) [1]
  EC50: < 100 nM

## CNC(=O)c1ccc(C[C@@H](CNC(=O)[C@H]2C[C@]2(C)c2ccccc2)N(C)C)cc1F [Compound B-22, 4-((S)-2-(dimethylamino)-3-((1S,2S)-2-methyl-2-phenylcyclopropane-1-carboxamido)propyl)-2-fluoro-N-methylbenzamide]
Mu opioid receptor (MOR) [2]
  EC50: < 100 nM

## CNC(=O)c1cc(F)c(C[C@@H](CNC(=O)[C@@H]2C[C@]2(C)c2ccccc2)N(C)C)cc1F [Compound B-28, 4-((S)-2-(dimethylamino)-3-((1R,2S)-2-methyl-2-phenylcyclopropane-1-carboxamido)propyl)-2,5-difluoro-N-methylbenzamide]
Mu opioid receptor (MOR) [2]
  EC50: < 100 nM

## Cc1cc(O)cc(C)c1C[C@@H](CNC(=O)N1CCc2ccccc2C1)N(C)C [Compound C-55, (S)—N-(2-(dimethylamino)-3-(4-hydroxy-2,6-dimethyphenyl)propyl)-3,4-dihydroisoquinoline-2(1H)-carboxamide]
Mu opioid receptor (MOR) [1]
  EC50: > 1000 nM

## COc1ccc(C(=O)NC[C@H](Cc2c(C)cc(O)cc2C)N(C)C)cc1Cl [Compound C-5, (S)-3-chloro-N-(2-(dimethylamino)-3-(4-hydroxy-2,6-dimethylphenyl)propyl)-4-methoxybenzamide]
Mu opioid receptor (MOR) [1]
  EC50: < 100 nM

## Cc1cc(O)cc(C)c1C[C@@H](CNC(=O)c1cc(F)c(Cl)c(F)c1)N(C)C [Compound C-29]
Mu opioid receptor (MOR) [1]
  EC50: < 100 nM

## CNC(=O)c1cc(C)c(C[C@@H](CNC(=O)c2ncc(Cl)cc2Cl)N(C)C)c(C)c1 [Compound C-48]
Mu opioid receptor (MOR) [1]
  EC50: 100 to 1000 nM

## CCNC(=O)c1ccc(C[C@@H](CNC(=O)[C@@H]2C[C@@]2(C)c2ccccc2)N(C)C)cc1F [Compound B-23, 4-((S)-2-(dimethylamino)-3-((1R,2R)-2-methyl-2-phenylcyclopropane-1-carboxamido)propyl)-N-ethyl-2-fluorobenzamide]
Mu opioid receptor (MOR) [2]
  EC50: < 100 nM

## CNC(=O)c1cc(C)c(C[C@@H](CNC(=O)c2ccc(Cl)c(F)c2)N(C)C)c(C)c1 [Compound C-13]
Mu opioid receptor (MOR) [1]
  EC50: < 100 nM

## CNC(=O)c1cc(C)c(C[C@@H](CNC(=O)c2ccc(Cl)cc2Cl)N(C)C)c(C)c1 [Compound C-16]
Mu opioid receptor (MOR) [1]
  EC50: < 100 nM

## CNC(=O)c1cc(C)c(C[C@@H](CNC(=O)c2ccccn2)N(C)C)c(C)c1 [Compound C-46]
Mu opioid receptor (MOR) [1]
  EC50: > 1000 nM

## CN(C)[C@H](CNC(=O)[C@@H]1C[C@@]1(C)c1ccccc1)Cc1cc2cn[nH]c2cc1Cl [Compound B-52, (1R,2R)—N—((S)-3-(6-chloro-2H-indazol-5-yl)-2-(dimethylamino)propyl)-2-methyl-2-phenylcyclopropane-1-carboxamide]
Mu opioid receptor (MOR) [2]
  EC50: < 100 nM

## CNC(=O)c1cc(C)c(C[C@@H](CNC(=O)c2ccc(Cl)cc2C)N(C)C)c(C)c1 [Compound C-15]
Mu opioid receptor (MOR) [1]
  EC50: < 100 nM

## CNC(=O)c1cc(C)c(CC(CNC(=O)c2ccccc2C2CC2)N(C)C)c(C)c1 (centres unmarked) [Compound C-43]
Mu opioid receptor (MOR) [1]
  EC50: < 100 nM

## CNC(=O)c1cc(C)c(C[C@@H](CNC(=O)c2ncc(C)cc2C)N(C)C)c(C)c1 [Compound C-49]
Mu opioid receptor (MOR) [1]
  EC50: 100 to 1000 nM

## CNC(=O)c1cc(C)c(C[C@@H](CNC(=O)c2ccc(F)c(Cl)c2)N(C)C)c(C)c1 [Compound C-14]
Mu opioid receptor (MOR) [1]
  EC50: < 100 nM

## CN(C)[C@H](CNC(=O)c1ccc(Cl)cc1Cl)Cc1ccc2n[nH]cc2c1 [Compound C-50, (S)-2,4-dichloro-N-(2-(dimethylamino)-3-(1H-indazol-5-yl)propyl) benzamide]
Mu opioid receptor (MOR) [1]
  EC50: 100 to 1000 nM

## CNC(=O)c1ccc(C[C@@H](CNC(=O)N2CCc3ccccc3C2)N(C)C)cc1F [Compound C-58, (S)—N-(2-(dimethylamino)-3-(3-fluoro-4-(methylcarbamoyl)phenyl)propyl)-3,4-dihydroisoquinoline-2(1H)-carboxamide]
Mu opioid receptor (MOR) [1]
  EC50: < 100 nM

## CNC(=O)c1cc(C)c(C[C@@H](CNC(=O)c2cc(Cl)cc(Cl)c2)N(C)C)c(C)c1 [Compound C-12]
Mu opioid receptor (MOR) [1]
  EC50: < 100 nM

## CNC(=O)c1ccc(C[C@@H](CNC(=O)c2cccc(Cl)c2)N(C)C)c(Cl)c1 [Compound C-41]
Mu opioid receptor (MOR) [1]
  EC50: < 100 nM

## CN(C)[C@H](CNC(=O)c1ccc(Cl)cc1)Cc1ccc(O)cc1Cl [Compound C-21]
Mu opioid receptor (MOR) [1]
  EC50: > 1000 nM

## CNC(=O)c1cc(C)c(C[C@@H](CNC(=O)[C@@H]2C[C@@]2(C)c2ccccc2)N(C)C)cc1F [Compound B-26, 4-((S)-2-(dimethylamino)-3-((1R,2R)-2-methyl-2-phenylcyclopropane-1-carboxamido)propyl)-2-fluoro-N,5-dimethylbenzamide]
Mu opioid receptor (MOR) [2]
  EC50: < 100 nM

## CN(C)[C@H](CNC(=O)[C@@H]1C[C@@H]1c1ccccc1)Cc1ccc(O)cc1 [Compound B-25, (1R,2S)—N—((S)-2-(dimethylamino)-3-(4-hydroxyphenyl)propyl)-2-phenylcyclopropane-1-carboxamide]
Mu opioid receptor (MOR) [2]
  EC50: 100 to 1000 nM

## CN(C)[C@](C)(CNC(=O)c1ccc(Cl)c(Cl)c1)Cc1ccc(O)cc1 [Compound C-3, (S)-3,4-dichloro-N-(2-(dimethylamino)-3-(4-hydroxyphenyl)-2-methylpropyl)benzamide]
Mu opioid receptor (MOR) [1]
  EC50: > 1000 nM

## CN(C)[C@H](CNC(=O)[C@@H]1C[C@@]1(C)c1ccccc1)Cc1ccc(O)c(Cl)c1 [Compound B-59, (1R,2R)—N—((S)-3-(3-chloro-4-hydroxyphenyl)-2-(dimethylamino)propyl)-2-methyl-2-phenylcyclopropane-1-carboxamide]
Mu opioid receptor (MOR) [2]
  EC50: < 100 nM

## CN1Cc2cc(O)ccc2C[C@H]1CNC(=O)N1CCc2ccccc2C1 [Compound C-53, (S)—N-((7-hydroxy-2-methyl-1,2,3,4-tetrahydroisoquinolin-3-yl)methyl)-3,4-dihydroisoquinoline-2(1H)-carboxamide]
Mu opioid receptor (MOR) [1]
  EC50: < 100 nM

## CN(C)[C@H](CNC(=O)c1cccc(Cl)c1)Cc1ccc(O)cc1 [Compound C-23, (S)-3-chloro-N-(2-(dimethylamino)-3-(4-hydroxyphenyl)propyl)benzamide]
Mu opioid receptor (MOR) [1]
  EC50: 100 to 1000 nM

## CNC(=O)c1ccc(C[C@@H](CNC(=O)c2ccc(Cl)c(Cl)c2)N(C)CC2CC2)cc1F [Compound C-38]
Mu opioid receptor (MOR) [1]
  EC50: < 100 nM

## CN(CC1CC1)[C@H](CNC(=O)c1ccc(Cl)c(Cl)c1)Cc1ccc2[nH]ncc2c1 [Compound C-62, (S)-3,4-dichloro-N-(2-((cyclopropylmethyl)(methyl)amino)-3-(1H-indazol-5-yl)propyl)benzamide]
Mu opioid receptor (MOR) [1]
  EC50: 100 to 1000 nM

## CN(C)[C@H](CNC(=O)c1ccc(Cl)c(F)c1)Cc1ccc(O)cc1Cl [Compound C-19]
Mu opioid receptor (MOR) [1]
  EC50: 100 to 1000 nM

## CN1Cc2cc(O)ccc2C[C@H]1CNC(=O)c1cccc(Cl)c1 [Compound C-36, (S)-3-chloro-N-((7-hydroxy-2-methyl-1,2,3,4-tetrahydroisoquinolin-3-yl)methyl)benzamide]
Mu opioid receptor (MOR) [1]
  EC50: < 100 nM

## CN(C)[C@H](CNC(=O)c1ccc(C2CC2)cc1)Cc1ccc(O)cc1Cl [Compound C-20]
Mu opioid receptor (MOR) [1]
  EC50: > 1000 nM

## CNC(=O)c1cc(C)c(C[C@@H](CNC(=O)c2cccc(Cl)c2)N(C)C)c(C)c1 [Compound C-44]
Mu opioid receptor (MOR) [1]
  EC50: < 100 nM

## CN(CC(F)(F)F)[C@H](CNC(=O)c1ccc(Cl)c(Cl)c1)Cc1ccc2[nH]ncc2c1 [Compound C-63]
Mu opioid receptor (MOR) [1]
  EC50: > 1000 nM

## Cc1cnc(C(=O)NC[C@H](Cc2ccc3n[nH]cc3c2)N(C)C)c(C)c1 [Compound C-52]
Mu opioid receptor (MOR) [1]
  EC50: > 1000 nM

## CNC(=O)c1cc(C)c(C[C@@H](CNC(=O)c2ccccc2Cl)N(C)C)c(C)c1 [Compound C-10]
Mu opioid receptor (MOR) [1]
  EC50: 100 to 1000 nM
